Data published in patent US9469627B2, “Phenyloxadiazole derivatives as PGDS inhibitors” (Sanofi, priority 2009, dated 2016).

Columns and labels:
human h-PGDS = human h-PGDS (Homo sapiens (Human), UniProt O60760); assay: Enzyme Immunoassay (EIA) method for inhibition of hematopoietic PGD2 synthase; assay type: biochemical; details: PGD2 formed from PGH2, measured by EIA; read-out: hPGDS EIA IC50
From the text: The compounds of the present invention can be tested for enzymatic inhibiting activity against PGD2 Synthase according to either one of the following assays.
Assay 2: Enzyme Immunoassay (EIA) Method
• a. Preparation of 0.1M K2HPO4/KH2PO4 buffer (pH 7.4) • Prepare 0.1 M KH2PO4 from 1M KH2PO4 (Sigma, Cat# P-8709) • Prepare 0.1 M K2HPO4 from powder of K2HPO4 (Fisher, BP363-500) • Mix 0.1 M K2HPO4 with 0.1 M KH2PO4 to adjust pH to 7.4. • b. Preparation of 0.5% γ-globulin • Add 0.1 g of γ-globulin (Sigma, Cat# G-5009) to 20 mL 0.1 M K2HPO4/KH2PO4 buffer (pH 7.4) and make 1-mL/vial aliquots and store in −80° C. • c. Preparation of 100 mM GSH • Add 307 mg of GSH (Sigma, Cat# G-6529) to 10 mL 0.1 M K2HPO4/KH2PO4 buffer (pH 7.4) and store at −80° C. • d. Preparation of Reaction buffer: • 198 mL of 0.1M K2HPO4/KH2PO4 buffer (pH 7.4) • 2 mM GSH—Prepared from 100 mM GSH • 0.4 g Glycerol • 2 mL of 0.5% γ-globulin • Add 0.4 g of glycerol and 2 mL of 0.5% γ-globulin to 198 mL of 0.1 M K2HPO4/KH2PO4 • buffer (pH7.4). • Add 0.4 mL of 100 mM GSH to 19.6 mL reaction buffer before the assay (enough for two 96-well plates). • e. Preparation of FeCl2/citric acid stopping solution: (8 mg/mL FeCl2, 0.1 M citric acid) • Add 40 mg fresh FeCl2 (IGN, Cat#158046) to 5 mL 0.1 M citric acid (Sigma, Cat# C0759). • f. Preparation of MOX reagent: • 10% EtOH—Add 1 mL of EtOH to 9 mL of ultra pure H2O • Dissolve 0.1 g of methoxylamine (Cayman, Cat#400036/) in 10% EtOH (10 mL). • Add 0.82 g of sodium acetate (Cayman, Cat#400037) to MOX solution and dissolve. II. Materials and Method • Dimethylsulfoxide (DMSO; Sigma; Cat# D2650) • Prostaglandin D2-MOX express EIA kit (Caymen Chemical, Catalog No. 500151)
Before the assay, cool down 10 mL of acetone in polypropylene tubes and empty 96 well plates in ice. All the procedures except compound dilution are performed on ice.
• 1. Dilute compound in DMSO
• 2. […] Total PGD2 levels (pg/mL) were determined in the samples by EIA kits (Cayman Chemical, Catalog No. 500151) • Calculate amount of PGD2 as below • Calculated % Positive control according to the equation below; […]

[1] = Solid solubility (solidsol); assay type: physicochemical

Chain of human h-PGDS (O60760 whole entry): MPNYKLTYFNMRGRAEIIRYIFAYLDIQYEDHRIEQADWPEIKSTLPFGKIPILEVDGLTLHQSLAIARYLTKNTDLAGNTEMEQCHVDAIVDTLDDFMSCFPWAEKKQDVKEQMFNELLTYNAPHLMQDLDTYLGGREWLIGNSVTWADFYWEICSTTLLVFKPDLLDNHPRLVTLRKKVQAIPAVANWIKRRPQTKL

Compound | IC50 (human h-PGDS) [nM] | solidsol [1] [µM]
CC(C)(O)c1nc(-c2cccc(CNC(=O)c3cnc(-c4ccccn4)nc3)c2)no1 [Example 1, 2-Pyridin-2-yl-pyrimidine-5-carboxylic acid 3-[5-(1-hydroxy-1-methyl-ethyl)-1,2,4-oxadiazol-3-yl]-benzylamide] | 12 | 135.9
C[C@H](NC(=O)c1cnc(-c2ccccn2)nc1)c1cccc(-c2noc(C(C)(C)O)n2)c1 [Example 2, 2-Pyridin-2-yl-pyrimidine-5-carboxylic acid ((S)-1-{3-[5-(1-hydroxy-1-methyl-ethyl)-1,2,4-oxadiazol-3-yl]-phenyl}-ethyl)-amide] | 11 | 854.9
C[C@@H](NC(=O)c1cnc(-c2ccccn2)nc1)c1cccc(-c2noc(C(C)(C)O)n2)c1 [Example 3, 2-Pyridin-2-yl-pyrimidine-5-carboxylic acid ((R)-1-{3-[5-(1-hydroxy-1-methyl-ethyl)-1,2,4-oxadiazol-3-yl]-phenyl}-ethyl)-amide] | 26 | 29.4
